Assay results from ChEMBL document CHEMBL3132769, “Fragment growing to retain or alter the selectivity of anchored kinase hinge-binding fragments” (Medchemcomm, 2014).

How the values were obtained:
[1] = biological target: T1, Inhibitor of nuclear factor kappa-B kinase subunit beta (Homo sapiens) (UniProt O14920); experiment: Inhibition of human full length IKK beta expressed in baculovirus assessed as substrate phosphorylation using fluorescence-labelled peptides as substrate at 420 uM after 90 mins by microfluidic peptide phosphorylation assay
T1 sequence (whole entry): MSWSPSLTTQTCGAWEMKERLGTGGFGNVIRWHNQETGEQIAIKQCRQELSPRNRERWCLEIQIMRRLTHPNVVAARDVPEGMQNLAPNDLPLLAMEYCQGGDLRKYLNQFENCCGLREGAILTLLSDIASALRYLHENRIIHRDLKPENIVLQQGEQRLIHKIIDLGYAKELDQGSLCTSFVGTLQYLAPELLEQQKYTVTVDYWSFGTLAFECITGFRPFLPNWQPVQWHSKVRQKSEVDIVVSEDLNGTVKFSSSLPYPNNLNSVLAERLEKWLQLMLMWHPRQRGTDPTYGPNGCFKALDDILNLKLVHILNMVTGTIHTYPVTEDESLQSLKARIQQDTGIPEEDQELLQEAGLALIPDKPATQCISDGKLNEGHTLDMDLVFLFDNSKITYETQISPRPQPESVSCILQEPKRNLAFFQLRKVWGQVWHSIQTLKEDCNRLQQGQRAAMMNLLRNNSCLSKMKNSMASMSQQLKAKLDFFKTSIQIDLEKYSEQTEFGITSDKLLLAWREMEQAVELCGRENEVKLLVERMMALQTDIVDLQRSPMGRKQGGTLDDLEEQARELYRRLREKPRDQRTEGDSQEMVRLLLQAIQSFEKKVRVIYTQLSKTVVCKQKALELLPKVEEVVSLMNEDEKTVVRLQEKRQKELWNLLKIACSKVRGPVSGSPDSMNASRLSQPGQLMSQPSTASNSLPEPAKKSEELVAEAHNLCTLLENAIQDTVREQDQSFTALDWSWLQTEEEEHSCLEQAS

[2] = biological target: Mitogen-activated protein kinase kinase kinase kinase 4 (Homo sapiens) (UniProt O95819); experiment: Inhibition of human HGK catalytic domain expressed in baculovirus assessed as substrate phosphorylation using fluorescence-labelled peptides as substrate at […] after 90 mins by microfluidic peptide phosphorylation assay
[3] = biological target: Hepatocyte growth factor receptor (Homo sapiens) (UniProt P08581); experiment: Inhibition of human MET cytoplasmic domain expressed in baculovirus assessed as substrate phosphorylation using fluorescence-labelled peptides as substrate at […] after 90 mins by microfluidic peptide phosphorylation assay
[4] = biological target: Mitogen-activated protein kinase 3 (Homo sapiens) (UniProt P27361); experiment: Inhibition of human full length ERK1 expressed in Escherichia coli cell assessed as substrate phosphorylation using fluorescence-labelled peptides as substrate at 0.1 uM after 90 mins by microfluidic peptide phosphorylation assay
Homo sapiens = species: Homo sapiens; experiment: Inhibition of human P70S6K catalytic domain expressed in baculovirus assessed as substrate phosphorylation using fluorescence-labelled peptides as substrate at 9 uM after 90 mins by microfluidic peptide phosphorylation assay
[5] = test system: T2, Receptor-type tyrosine-protein kinase FLT3 (Homo sapiens), P36888 [D835Y]; experiment: Inhibition of human FLT3 D835Y mutant catalytic domain expressed in baculovirus assessed as substrate phosphorylation using fluorescence-labelled peptides as substrate at 9 uM after 90 mins by microfluidic peptide phosphorylation assay
T2 sequence (whole entry): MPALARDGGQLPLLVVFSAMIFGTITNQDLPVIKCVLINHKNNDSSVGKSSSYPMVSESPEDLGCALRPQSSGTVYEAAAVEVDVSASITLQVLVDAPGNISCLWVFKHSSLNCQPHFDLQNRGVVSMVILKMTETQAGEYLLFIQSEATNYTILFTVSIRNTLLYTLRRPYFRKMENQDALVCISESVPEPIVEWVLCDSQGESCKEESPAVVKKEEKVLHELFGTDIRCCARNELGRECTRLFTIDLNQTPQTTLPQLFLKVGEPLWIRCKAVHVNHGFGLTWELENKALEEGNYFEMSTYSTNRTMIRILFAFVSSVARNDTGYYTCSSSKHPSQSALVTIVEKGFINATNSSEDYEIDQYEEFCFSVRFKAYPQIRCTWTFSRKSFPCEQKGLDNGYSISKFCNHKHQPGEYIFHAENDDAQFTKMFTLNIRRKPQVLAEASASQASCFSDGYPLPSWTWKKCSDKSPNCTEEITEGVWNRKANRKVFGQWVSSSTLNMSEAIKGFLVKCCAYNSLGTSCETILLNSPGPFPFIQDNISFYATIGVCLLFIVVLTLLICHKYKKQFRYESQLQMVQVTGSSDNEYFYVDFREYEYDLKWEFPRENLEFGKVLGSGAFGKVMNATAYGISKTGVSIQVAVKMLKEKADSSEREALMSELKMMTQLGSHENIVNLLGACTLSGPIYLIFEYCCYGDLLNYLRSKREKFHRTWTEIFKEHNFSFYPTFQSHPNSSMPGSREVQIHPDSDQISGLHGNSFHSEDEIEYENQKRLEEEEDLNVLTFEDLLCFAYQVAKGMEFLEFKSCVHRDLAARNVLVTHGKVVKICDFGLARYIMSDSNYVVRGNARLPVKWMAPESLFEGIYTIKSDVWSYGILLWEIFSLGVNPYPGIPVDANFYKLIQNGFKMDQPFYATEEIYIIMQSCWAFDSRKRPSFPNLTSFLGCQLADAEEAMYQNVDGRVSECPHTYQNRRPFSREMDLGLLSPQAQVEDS

[6] = biological target: Ribosomal protein S6 kinase alpha-5 (Homo sapiens) (UniProt O75582); experiment: Inhibition of human full length MSK1 expressed in baculovirus assessed as substrate phosphorylation using fluorescence-labelled peptides as substrate at 70 uM after 90 mins by microfluidic peptide phosphorylation assay
[7] = biological target: Ribosomal protein S6 kinase alpha-1 (Homo sapiens) (UniProt Q15418); experiment: Inhibition of human full length RSK1 expressed in baculovirus assessed as substrate phosphorylation using fluorescence-labelled peptides as substrate at 95 uM after 90 mins by microfluidic peptide phosphorylation assay
Sequence of Ribosomal protein S6 kinase alpha-1 (Homo sapiens) (Q15418 whole entry): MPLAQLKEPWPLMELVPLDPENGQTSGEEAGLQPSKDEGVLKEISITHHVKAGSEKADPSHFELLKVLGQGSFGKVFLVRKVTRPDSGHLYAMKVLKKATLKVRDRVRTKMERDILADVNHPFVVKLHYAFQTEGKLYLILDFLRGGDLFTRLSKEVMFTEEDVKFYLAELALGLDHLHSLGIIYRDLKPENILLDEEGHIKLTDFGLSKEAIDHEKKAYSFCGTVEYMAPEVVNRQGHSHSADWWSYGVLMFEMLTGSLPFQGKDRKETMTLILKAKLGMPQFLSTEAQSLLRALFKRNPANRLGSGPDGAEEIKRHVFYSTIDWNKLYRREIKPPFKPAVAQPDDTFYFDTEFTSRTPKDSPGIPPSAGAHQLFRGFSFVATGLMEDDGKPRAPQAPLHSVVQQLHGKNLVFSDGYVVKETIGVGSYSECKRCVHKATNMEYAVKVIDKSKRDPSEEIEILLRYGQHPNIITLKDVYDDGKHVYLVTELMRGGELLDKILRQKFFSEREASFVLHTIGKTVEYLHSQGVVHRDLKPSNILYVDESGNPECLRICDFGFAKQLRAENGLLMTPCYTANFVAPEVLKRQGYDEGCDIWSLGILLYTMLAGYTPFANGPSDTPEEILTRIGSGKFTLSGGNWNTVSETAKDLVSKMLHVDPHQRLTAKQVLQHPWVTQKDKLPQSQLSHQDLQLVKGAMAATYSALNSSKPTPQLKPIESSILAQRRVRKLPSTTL

Sequence of Mitogen-activated protein kinase kinase kinase kinase 4 (Homo sapiens) (O95819 2-1239 limits assumed): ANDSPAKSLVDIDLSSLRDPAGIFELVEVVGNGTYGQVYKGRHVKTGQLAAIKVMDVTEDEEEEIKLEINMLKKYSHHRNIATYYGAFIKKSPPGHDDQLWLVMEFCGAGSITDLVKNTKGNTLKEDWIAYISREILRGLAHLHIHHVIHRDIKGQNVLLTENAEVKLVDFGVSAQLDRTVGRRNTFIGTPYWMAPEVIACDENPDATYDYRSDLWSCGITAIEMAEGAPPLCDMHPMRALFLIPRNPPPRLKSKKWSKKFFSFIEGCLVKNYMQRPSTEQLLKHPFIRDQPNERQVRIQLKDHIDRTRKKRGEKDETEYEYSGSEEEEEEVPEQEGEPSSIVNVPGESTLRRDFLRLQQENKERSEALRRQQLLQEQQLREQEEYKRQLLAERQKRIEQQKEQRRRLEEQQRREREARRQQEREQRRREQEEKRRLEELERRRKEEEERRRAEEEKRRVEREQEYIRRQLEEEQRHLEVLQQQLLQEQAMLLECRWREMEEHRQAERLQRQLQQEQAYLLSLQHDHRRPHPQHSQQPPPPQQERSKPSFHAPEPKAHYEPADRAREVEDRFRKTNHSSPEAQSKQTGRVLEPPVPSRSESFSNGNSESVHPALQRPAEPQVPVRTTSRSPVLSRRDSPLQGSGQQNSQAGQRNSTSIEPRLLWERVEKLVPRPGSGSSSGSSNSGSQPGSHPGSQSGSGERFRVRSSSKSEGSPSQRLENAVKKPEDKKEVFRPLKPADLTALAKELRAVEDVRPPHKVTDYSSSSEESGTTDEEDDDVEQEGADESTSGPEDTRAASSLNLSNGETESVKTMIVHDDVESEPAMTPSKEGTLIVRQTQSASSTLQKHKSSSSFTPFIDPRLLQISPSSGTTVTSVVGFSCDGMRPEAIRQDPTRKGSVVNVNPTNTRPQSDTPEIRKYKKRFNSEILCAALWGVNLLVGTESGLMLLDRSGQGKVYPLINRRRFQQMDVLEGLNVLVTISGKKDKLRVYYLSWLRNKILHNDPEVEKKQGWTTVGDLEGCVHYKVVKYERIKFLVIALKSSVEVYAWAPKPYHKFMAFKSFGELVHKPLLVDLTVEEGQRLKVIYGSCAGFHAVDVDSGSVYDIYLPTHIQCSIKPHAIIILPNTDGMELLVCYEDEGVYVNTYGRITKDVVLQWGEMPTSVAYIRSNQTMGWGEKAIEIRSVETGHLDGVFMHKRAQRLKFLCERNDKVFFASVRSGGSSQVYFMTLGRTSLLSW
Sequence of Ribosomal protein S6 kinase alpha-5 (Homo sapiens) (O75582 whole entry, looked up): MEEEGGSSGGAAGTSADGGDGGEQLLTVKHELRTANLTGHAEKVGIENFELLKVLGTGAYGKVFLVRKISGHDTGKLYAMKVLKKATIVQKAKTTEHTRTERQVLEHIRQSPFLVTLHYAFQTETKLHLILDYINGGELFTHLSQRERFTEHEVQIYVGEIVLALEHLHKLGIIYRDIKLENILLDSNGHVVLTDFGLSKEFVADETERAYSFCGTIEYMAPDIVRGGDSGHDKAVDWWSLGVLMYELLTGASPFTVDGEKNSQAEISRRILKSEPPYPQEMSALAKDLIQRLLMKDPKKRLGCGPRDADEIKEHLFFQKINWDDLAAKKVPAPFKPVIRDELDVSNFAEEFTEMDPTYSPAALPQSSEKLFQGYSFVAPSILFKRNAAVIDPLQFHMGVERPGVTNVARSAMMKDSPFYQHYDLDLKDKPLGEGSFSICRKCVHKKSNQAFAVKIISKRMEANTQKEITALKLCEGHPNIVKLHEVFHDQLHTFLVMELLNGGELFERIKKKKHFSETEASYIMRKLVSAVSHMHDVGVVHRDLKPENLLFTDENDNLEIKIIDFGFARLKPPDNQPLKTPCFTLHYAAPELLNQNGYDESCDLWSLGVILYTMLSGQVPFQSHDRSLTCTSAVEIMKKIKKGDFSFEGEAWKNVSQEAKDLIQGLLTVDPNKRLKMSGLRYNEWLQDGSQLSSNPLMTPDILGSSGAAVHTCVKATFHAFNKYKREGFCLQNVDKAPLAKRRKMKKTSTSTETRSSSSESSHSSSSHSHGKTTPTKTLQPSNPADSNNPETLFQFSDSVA
Sequence of Hepatocyte growth factor receptor (Homo sapiens) (P08581 whole entry, the tested form may be a part): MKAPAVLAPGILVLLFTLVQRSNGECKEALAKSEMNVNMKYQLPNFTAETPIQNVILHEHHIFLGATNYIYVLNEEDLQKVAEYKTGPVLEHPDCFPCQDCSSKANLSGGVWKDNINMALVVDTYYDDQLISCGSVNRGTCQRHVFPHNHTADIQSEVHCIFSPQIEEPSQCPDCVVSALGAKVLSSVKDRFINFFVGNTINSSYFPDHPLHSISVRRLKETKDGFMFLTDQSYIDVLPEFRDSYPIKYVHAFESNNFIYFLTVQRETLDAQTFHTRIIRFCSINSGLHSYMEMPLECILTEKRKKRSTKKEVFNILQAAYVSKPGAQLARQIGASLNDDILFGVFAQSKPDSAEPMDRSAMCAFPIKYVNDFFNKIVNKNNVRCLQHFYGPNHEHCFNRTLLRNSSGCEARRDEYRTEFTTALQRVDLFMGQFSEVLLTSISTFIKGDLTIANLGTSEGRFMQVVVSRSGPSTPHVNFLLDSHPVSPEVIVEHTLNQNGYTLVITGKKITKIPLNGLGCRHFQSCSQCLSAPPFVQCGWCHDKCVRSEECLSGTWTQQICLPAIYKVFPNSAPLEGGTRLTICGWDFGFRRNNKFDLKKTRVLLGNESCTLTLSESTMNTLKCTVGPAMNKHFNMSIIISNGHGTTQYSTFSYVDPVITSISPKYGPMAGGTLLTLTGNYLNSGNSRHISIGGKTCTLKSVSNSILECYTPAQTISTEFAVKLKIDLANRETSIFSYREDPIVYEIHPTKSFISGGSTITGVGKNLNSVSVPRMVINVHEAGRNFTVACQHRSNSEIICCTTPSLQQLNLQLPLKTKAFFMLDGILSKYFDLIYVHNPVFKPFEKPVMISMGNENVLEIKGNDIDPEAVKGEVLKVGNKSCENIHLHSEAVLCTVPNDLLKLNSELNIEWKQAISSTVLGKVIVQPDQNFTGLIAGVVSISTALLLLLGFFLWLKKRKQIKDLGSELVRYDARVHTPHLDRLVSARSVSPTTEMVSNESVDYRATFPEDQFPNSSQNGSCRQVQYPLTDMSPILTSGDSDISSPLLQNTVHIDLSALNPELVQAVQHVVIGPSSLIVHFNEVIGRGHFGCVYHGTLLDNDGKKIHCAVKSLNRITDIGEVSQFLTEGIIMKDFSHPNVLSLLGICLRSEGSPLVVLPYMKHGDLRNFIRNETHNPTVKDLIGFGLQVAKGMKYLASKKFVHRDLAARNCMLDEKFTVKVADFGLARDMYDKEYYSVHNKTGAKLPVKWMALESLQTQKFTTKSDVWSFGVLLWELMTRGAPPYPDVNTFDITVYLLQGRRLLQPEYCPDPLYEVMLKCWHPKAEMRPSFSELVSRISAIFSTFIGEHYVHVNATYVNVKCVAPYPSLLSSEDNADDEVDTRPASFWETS
Sequence of Mitogen-activated protein kinase 3 (Homo sapiens) (P27361 whole entry, the tested form may be a part): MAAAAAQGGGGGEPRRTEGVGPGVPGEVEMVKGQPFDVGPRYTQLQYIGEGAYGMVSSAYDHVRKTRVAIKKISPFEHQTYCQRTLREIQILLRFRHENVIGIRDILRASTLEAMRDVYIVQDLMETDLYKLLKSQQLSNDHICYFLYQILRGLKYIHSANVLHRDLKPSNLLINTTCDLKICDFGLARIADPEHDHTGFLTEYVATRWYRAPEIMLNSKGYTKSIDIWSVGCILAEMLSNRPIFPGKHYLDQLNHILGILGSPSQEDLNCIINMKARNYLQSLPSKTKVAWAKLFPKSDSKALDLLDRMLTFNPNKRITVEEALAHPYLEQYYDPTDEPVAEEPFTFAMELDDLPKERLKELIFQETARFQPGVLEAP

Work on c1nc(N2CCOCC2)c2nc[nH]c2n1 yielded an inhibition [1] of 87%.

Compound COC(=O)c1cnc(Nc2cnc(C#N)cn2)cc1NCC1CCNCC1 has an inhibition [2] of 3% and an inhibition [3] of 2.5%.

For C[C@H](CN(C)C)Oc1nc(Nc2cc3cccc(Cl)c3cn2)cnc1C#N, the inhibition [4] was 1%.

Compound NCC1CN(c2ncnc3[nH]c4cnccc4c23)CCO1 (stereo not drawn) has an inhibition (Homo sapiens) of 14.5% and an inhibition [5] of 95%.

With CNCc1ccc(-c2ncnc3[nH]cnc23)cc1 the inhibition [6] was 72.5%.

Compound NCCc1ccc(-c2ncnc3[nH]cnc23)cc1 has an inhibition [7] of 83.5%.
